Data taken from patent US8211929B2, “Pyrimidine derivatives as kinase modulators and method of use” (Exelixis, Inc., priority 2004, dated 2012).
Like-named read-outs stand apart in the source and are kept apart here.

Legend:
[1] = molecular target: T1, (Homo sapiens, UniProt P08069); experiment: IGF1R kinase assay (LCCA), IGF 0P; type: biochemical
T1 construct: human IGF1R kinase domain residues M954-C1367; made in house; host or cells: baculovirus expression (insect cells)
Method: (§1) Kinase activity and compound inhibition are investigated using one or more of the three assay formats described below. The ATP concentrations for each assay are selected to be close to the Michaelis-Menten constant (KM) for each individual kinase. Dose-response experiments are performed at 10 different inhibitor concentrations in a 384-well plate format. […] Y=Min+(Max−Min)/(1+(X/IC50)^H) Equation (2)
(§2) IGF1R kinase biochemical activity was assessed using a Luciferase-Coupled Chemiluminescent Kinase assay (LCCA) format. Kinase activity was measured as the percent ATP remaining following the kinase reaction. Remaining ATP was detected by luciferase-luciferin-coupled chemiluminescence. Specifically, the reaction was initiated by mixing test compounds, 3 μM ATP, 4 μM poly EY peptide and 4 nM IGF1R (baculovirus expressed human IGF1R kinase domain residues M954-C1367) in a 20 uL assay buffer (20 mM Tris-HCL pH7.5, 10 mM MgCl2, 0.02% Triton X-100, 1 mM DTT, 2 mM MnCl2). The mixture is incubated at ambient temperature for 2 hours after which 20 uL luciferase-luciferin mix is added and the chemiluminescent signal read using a Wallac Victor^2 reader.

[2] = molecular target: T2, IGF 3P (Homo sapiens, UniProt P08069); experiment: IGF1R kinase assay (LCCA), IGF 3P; type: biochemical
T2 construct: human IGF1R kinase domain residues M954-C1367; made in house; host or cells: baculovirus expression (insect cells)
T2 sequence (P08069 954-1367): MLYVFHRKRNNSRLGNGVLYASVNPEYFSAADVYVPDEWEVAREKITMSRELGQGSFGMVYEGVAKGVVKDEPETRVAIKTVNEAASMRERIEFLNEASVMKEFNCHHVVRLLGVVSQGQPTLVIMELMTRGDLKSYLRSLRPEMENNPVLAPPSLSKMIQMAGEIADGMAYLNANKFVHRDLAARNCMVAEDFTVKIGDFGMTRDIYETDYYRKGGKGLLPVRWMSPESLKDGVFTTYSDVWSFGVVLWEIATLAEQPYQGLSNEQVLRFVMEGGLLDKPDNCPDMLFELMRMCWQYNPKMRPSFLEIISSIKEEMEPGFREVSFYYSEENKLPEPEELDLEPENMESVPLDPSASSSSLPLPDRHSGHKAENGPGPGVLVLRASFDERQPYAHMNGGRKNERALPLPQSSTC
Method: as §1, §2

[3] = IGF1R kinase LCCA assay, IGF 0P
[4] = IGF1R kinase LCCA assay, IGF 3P

T1 sequence (P08069 954-1367): as above

Row | Structure (SMILES) | IC50 ([1]; IGF1R kinase LCCA assay) [nM] | IC50 ([2]; IGF1R kinase LCCA assay) [nM] | other results
1 | Cc1cc(Nc2cc(C3CC3)[nH]n2)nc(NCc2cc(-c3cnccn3)no2)n1 [Example 623, N^4-(5-cyclopropyl-1H-pyrazol-3-yl)-6-methyl-N^2-[(3-pyrazin-2-ylisoxazol-5-yl)methyl]pyrimidine-2,4-diamine] |  |  | IC50 [1]: 50 to 500 nM; IC50 [2]: < 50 nM
2 | Cc1cc(Nc2ccc3ccccc3c2)nc(Nc2ccc(N3CCOCC3)cc2)n1 [Example 297] | > 5000 | > 5000 | 
3 | CN(C)CCOc1cc(Nc2cc(C3CC3)[nH]n2)nc(NCc2cc(-c3ccccn3)no2)n1 [Example 641, N^4-(5-cyclopropyl-1H-pyrazol-3-yl)-6-{[2-(dimethylamino)ethyl]oxy}-N^2-[(3-pyridin-2-ylisoxazol-5-yl)methyl]pyrimidine-2,4-diamine] |  |  | IC50 [1]: 50 to 500 nM; IC50 [2]: < 50 nM
4 | CC(=O)N1CCN(c2cc(Nc3cc(C4CC4)[nH]n3)nc(NCc3cc(C(C)C)no3)n2)CC1 [Example 614, 6-(4-acetylpiperazin-1-yl)-N^4-(5-cyclopropyl-1H-pyrazol-3-yl)-N^2-{[3-(1-methylethyl)isoxazol-5-yl]methyl}pyrimidine-2,4-diamine] |  |  | IC50 [1]: 50 to 500 nM; IC50 [2]: < 50 nM
5 | O=C(c1cc(Nc2cc(C3CC3)[nH]n2)nc(NCc2cc(-c3ccccc3)no2)n1)N1CCOCC1 [Example 512] | 50 to 500 | 50 to 500 | 
6 | CCN(CC)CCCNC(=O)c1ccc(Nc2ncc(C)c(Nc3cc(C4CC4)n[nH]3)n2)cc1 [Example 181] | 500 to 5000 | 500 to 5000 | 
7 | Brc1cnc(NC2CCCc3ccccc32)nc1Nc1cc(C2CC2)[nH]n1 (stereo not shown) [Example 34] | 50 to 500 | 500 to 5000 | 
8 | Cc1cc(Nc2cc(OCCN(C)C)nc(NCc3cc(C)no3)n2)[nH]n1 [Example 650, 6-{[2-(dimethylamino)ethyl]oxy}-N^2-[(3-methylisoxazol-5-yl)methyl]-N^4-(3-methyl-1H-pyrazol-5-yl)pyrimidine-2,4-diamine] |  |  | IC50 [1]: 500 to 5000 nM; IC50 [2]: 500 to 5000 nM
9 | Cc1cc(Nc2cc(C3CC3)n[nH]2)nc(Nc2ccc(N(C)C)cc2)n1 [Example 213] | 500 to 5000 | 500 to 5000 | 
10 | CN1CCN(c2cc(Nc3cc(C4CC4)n[nH]3)nc(NCc3cc(-c4ccnc(N)n4)no3)n2)CC1 [Example 660, N^2-{[3-(2-aminopyrimidin-4-yl)isoxazol-5-yl]methyl}-N^4-(3-cyclopropyl-1H-pyrazol-5-yl)-6-(4-methylpiperazin-1-yl)pyrimidine-2,4-diamine] |  |  | IC50 [1]: 50 to 500 nM; IC50 [2]: 50 to 500 nM
11 | Cc1cc(Nc2cc(C3CC3)n[nH]2)nc(Nc2ccc3c(c2)CC(N)C3)n1 (stereo not shown) [Example 546] | 500 to 5000 | 50 to 500 | 
12 | c1ccc(-c2cc(CNc3nc(NCCN4CCOCC4)cc(Nc4cc(C5CC5)[nH]n4)n3)on2)cc1 [Example 513] | 50 to 500 | < 50 | 
13 | Brc1ccc(Nc2ncc(Br)c(Nc3cc(C4CC4)n[nH]3)n2)c(Br)c1 [Example 163] | 500 to 5000 | 500 to 5000 | 
14 | CC(C)c1cc(Nc2cc(OCCN3CCOCC3)nc(NCc3cc(-c4ccc(F)cc4)no3)n2)[nH]n1 [Example 609] |  |  | IC50 [1]: 50 to 500 nM; IC50 [2]: < 50 nM
15 | COc1cc(Nc2nc(C)cc(Nc3cc(C4CC4)n[nH]3)n2)cc(C(F)(F)F)c1 [Example 302] | > 5000 | > 5000 | 
16 | Brc1cnc(Nc2ccc3c(c2)CCC3)nc1Nc1cc(C2CC2)[nH]n1 [Example 180] | 500 to 5000 | 500 to 5000 | 
17 | CC(C)c1cc(CNc2nc(Nc3cc(C4CC4)[nH]n3)cc(N3CCN[C@H](C)C3)n2)on1 [Example 557] |  |  | IC50 [1, 3]: 50 to 500 nM; IC50 [2, 4]: < 50 nM
18 | CC(=O)NCC1CC(n2cc(-c3cccc(OCc4ccccc4)c3)c3c(NC(C)=O)ncnc32)C1 (stereo not shown) [Example 346] | > 5000 | 500 to 5000 | 
19 | CC(C)c1cc(Nc2cc(OCCN3CCCCC3)nc(NCc3cc(C(C)C)no3)n2)[nH]n1 [Example 595, N^2-{[3-(1-methylethyl)isoxazol-5-yl]methyl}-N^4-[3-(1-methylethyl)-1H-pyrazol-5-yl]-6-[(2-piperidin-1-ylethyl)oxy]pyrimidine-2,4-diamine] |  |  | IC50 [1]: 50 to 500 nM; IC50 [2]: < 50 nM
20 | Clc1ccccc1Nc1ncc(Br)c(Nc2n[nH]c3ccccc23)n1 [Example 267] | > 5000 | > 5000 | 
21 | CCN(CC)CCNC(=O)c1cc2ccc(Nc3nc(C)cc(Nc4cc(C5CC5)n[nH]4)n3)cc2s1 [Example 221] | 500 to 5000 | 500 to 5000 | 
22 | Cc1cc(Nc2cc(C3CC3)[nH]n2)nc(NCc2ccc(-c3ccc(Cl)cc3)s2)n1 [Example 562] | 500 to 5000 | 500 to 5000 | 

Row | Structure (SMILES) | IC50 ([1]; IGF1R kinase LCCA assay) [nM] | IC50 ([2]; IGF1R kinase LCCA assay) [nM] | other results
23 | Brc1cnc(Nc2ccc3c(c2)OCCO3)nc1Nc1cc(C2CC2)n[nH]1 [Example 104] | 50 to 500 | 50 to 500 | 
24 | FC(F)(F)Oc1ccc(Nc2ncc(Br)c(Nc3cc(C4CC4)[nH]n3)n2)c(Br)c1 [Example 237] | > 5000 | 500 to 5000 | 
25 | FC(F)(F)Oc1cccc(Nc2ncc(Br)c(Nc3cc(C4CC4)n[nH]3)n2)c1 [Example 264] | > 5000 | > 5000 | 
26 | CCN(CC)CCNC(=O)CCc1ccc(Nc2ncc(Br)c(Nc3cc(C)on3)n2)cc1 [Example 58] |  |  | IC50 [1, 3]: 500 to 5000 nM; IC50 [2, 4]: < 50 nM
27 | CCN(CC)CCCNc1cc(Nc2cc(C3CC3)[nH]n2)nc(NCc2cc(-c3ccccc3)no2)n1 [Example 42] | 50 to 500 | < 50 | 
28 | CCN(CC)CCCNC(=O)c1ccc(Nc2nccc(Nc3cc(C4CC4)n[nH]3)n2)cc1 [Example 195] | 500 to 5000 | 500 to 5000 | 
29 | Cc1cc(Nc2cc(C3CC3)n[nH]2)nc(Nc2ccc(CCN3CCCCC3)cc2)n1 [Example 554] | 500 to 5000 | 500 to 5000 | 
30 | Cc1cc(Nc2n[nH]cc2C#N)nc(NCc2cc(-c3ccccc3)no2)n1 [Example 306] | > 5000 | > 5000 | 
31 | CC(C)(C)OC(=O)N1CC[C@@H](NC(=O)c2ccc(Nc3ncc(Br)c(Nc4cc(C5CC5)n[nH]4)n3)cc2)C1 [Example 145] | 500 to 5000 | 50 to 500 | 
32 | COc1ccc(CNc2ncc(Br)c(Nc3cc(C4CC4)n[nH]3)n2)cc1OC [Example 247] | > 5000 | 500 to 5000 | 
33 | O=C(NCc1ccccc1)c1nc(Nc2ccccc2Cl)nc(Nc2cc(C3CC3)n[nH]2)c1[N+](=O)[O-] [Example 239] | 500 to 5000 | 500 to 5000 | 
34 | Cc1cc(Nc2cc(C3CC3)n[nH]2)nc(Nc2ccc3cc(C(=O)NCCN4CCCC4)sc3c2)n1 [Example 173] | 500 to 5000 | 500 to 5000 | 
35 | Nc1ncnc2c1c(-c1cccc(OCc3ccccc3)c1)cn2C1CNC1 [Example 348] | > 5000 | 500 to 5000 | 
36 | Cc1cc(Nc2cc(C3CC3)n[nH]2)nc(Nc2ccc(CCC(=O)N(C)C)cc2)n1 [Example 111] | 500 to 5000 | 50 to 500 | 
37 | Cc1cc(Nc2cc(C3CC3)n[nH]2)nc(Nc2ccc(C3CCNCC3)cc2)n1 [Example 553] | 500 to 5000 | 500 to 5000 | 
38 | CN1CCN(c2ccc(CNc3ncc(Br)c(Nc4cc(C5CC5)n[nH]4)n3)cc2)CC1 [Example 186] | 500 to 5000 | 500 to 5000 | 
39 | Cc1cc(Nc2cc(C3CC3)n[nH]2)nc(Nc2ccc(N3CCN(C)CC3)cc2)n1 [Example 569] | 500 to 5000 | 500 to 5000 | 
40 | CC(C)c1cc(CNc2nc(Cl)cc(Nc3cc(C(C)C)[nH]n3)n2)on1 [Example 544] | 500 to 5000 | < 50 | 
41 | Brc1cnc(Nc2ccc(Oc3ccccc3)cc2)nc1Nc1cc(C2CC2)[nH]n1 [Example 321] | > 5000 | > 5000 | 
42 | Cc1cc(Nc2cc(C3CC3)n[nH]2)nc(Nc2ccc(CCN)cc2)n1 [Example 550] | 500 to 5000 | 50 to 500 | 
43 | Brc1cnc(NCC(c2ccccc2)c2ccccc2)nc1Nc1cc(C2CC2)[nH]n1 [Example 329] | > 5000 | > 5000 | 
44 | CN1CCN(c2cc(Nc3cc(C4CC4)[nH]n3)nc(NCc3cc(-c4ccncn4)no3)n2)CC1 [Example 628, N^4-(5-cyclopropyl-1H-pyrazol-3-yl)-6-(4-methylpiperazin-1-yl)-N^2-[(3-pyrimidin-4-ylisoxazol-5-yl)methyl]pyrimidine-2,4-diamine] |  |  | IC50 [1]: 50 to 500 nM; IC50 [2]: < 50 nM
